# Laboratory results taken from US8106235B2, “Biphenyl compound selective agonists of gamma RAR receptors” (Galderma Research & Development, priority 2005, dated 2012).
# Legend:
# [1] = biological target: T1, RAR alpha (Homo sapiens, UniProt P10276); test: Transactivation test (luciferase reporter, apparent Kd by Schild regression against a reference antagonist), RAR alpha; type: cell-based; settings: HeLa stable transfectants, ERE-βGlob-Luc reporter, read-out: RAR alpha Kdapp
# T1 construct: It drives the ERE-βGlob-Luc reporter
# T1 sequence (P10276 183-417 limits assumed): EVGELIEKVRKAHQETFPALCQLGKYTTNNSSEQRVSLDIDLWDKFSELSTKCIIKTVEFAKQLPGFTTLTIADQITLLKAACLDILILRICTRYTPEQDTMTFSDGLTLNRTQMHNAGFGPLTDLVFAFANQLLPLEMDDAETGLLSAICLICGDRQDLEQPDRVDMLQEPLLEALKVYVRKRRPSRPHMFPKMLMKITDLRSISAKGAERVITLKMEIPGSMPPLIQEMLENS
# Protocol: (§1) The activation of the receptors by an agonist (activator) in HeLa cells results in the expression of a reporter gene, luciferase, which, in the presence of a substrate, generates light. It is thus possible to measure the activation of the receptors by quantifying the luminescence produced after incubation of the cells in the presence of a reference antagonist. The activating products displace the antagonist from its site, thus allowing activation of the receptor. The activity is measured by quantifying the increase in the light produced. This measurement makes it possible to determine the activator activity of the compound that can be used in the invention.
# (§2) In this study, a constant which is the affinity of the molecule for the receptor is determined. […]
# (§3) These cross curves make it possible to determine the AC50 values (concentration at which 50% activation of the receptor is observed) of the reference ligand at various concentrations of test product. These AC50 values are used to calculate the Schild regression by plotting a straight line corresponding to the Schild equation (“Quantitation in receptor pharmacology” Terry P. Kenakin, Receptors and Channels, 2001, 7, 371-385).
# (§4) In the case of an agonist, the AC50 is calculated by plotting the curve of the product at the concentration of the reference ligand giving 80% activation. […]
# [2] = biological target: T2, RAR beta (Homo sapiens, UniProt P10826); test: Transactivation test (luciferase reporter, apparent Kd by Schild regression against a reference antagonist), RAR beta; type: cell-based; settings: HeLa stable transfectants, ERE-βGlob-Luc reporter, read-out: RAR beta Kdapp
# T2 construct: It drives the ERE-βGlob-Luc reporter
# T2 sequence (P10826 183-417 limits assumed): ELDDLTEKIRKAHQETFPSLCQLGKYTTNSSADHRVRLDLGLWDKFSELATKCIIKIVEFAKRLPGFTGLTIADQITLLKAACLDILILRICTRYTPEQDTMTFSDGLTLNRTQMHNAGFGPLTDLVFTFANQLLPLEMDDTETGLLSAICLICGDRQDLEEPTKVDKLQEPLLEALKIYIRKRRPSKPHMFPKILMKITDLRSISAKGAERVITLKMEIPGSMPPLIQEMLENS
# Protocol: as §1, §2, §3, §4
# [3] = biological target: T3, RAR gamma (Homo sapiens, UniProt P13631); test: Transactivation test (luciferase reporter, apparent Kd by Schild regression against a reference antagonist), RAR gamma; type: cell-based; settings: HeLa stable transfectants, ERE-βGlob-Luc reporter, RAR gamma; apparent Kd; read-out: RAR gamma Kdapp
# T3 construct: RAR gamma Kdapp; apparent Kd; It drives the ERE-βGlob-Luc reporter
# T3 sequence (P13631 185-419 limits assumed): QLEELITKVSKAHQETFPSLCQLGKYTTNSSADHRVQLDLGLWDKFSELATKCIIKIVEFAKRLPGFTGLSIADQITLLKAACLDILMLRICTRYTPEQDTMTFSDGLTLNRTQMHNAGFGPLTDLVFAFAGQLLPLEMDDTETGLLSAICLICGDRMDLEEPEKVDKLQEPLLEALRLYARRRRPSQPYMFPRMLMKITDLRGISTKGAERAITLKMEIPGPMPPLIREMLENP
# Protocol: as §1
# (§5) In this study, a constant which is the affinity of the molecule for the receptor is determined. Since this value can fluctuate according to the basal activity and the expression of the receptor, it is designated apparent Kd (KdApp).
# (§6) In order to determine this constant, “cross curves” of the test product (4′-(3′-hydroxypropyl)-3′-(5,5,8,8-tetramethyl-5,6,7,8-tetrahydronaphthalen-2-yl)biphenyl-4-carboxylic acid and 4′-(2,3-dihydroxypropyl)-3′-(5,5,8,8-tetramethyl-5,6,7,8-tetrahydronaphthalen-2-yl)biphenyl-4-carboxylic acid), against a reference antagonist otherwise known as reference ligand, 4-(5,5-dimethyl-8-p-tolyl-5,6-dihydronaphthalen-2-ylethynyl)benzoic acid, are produced. The test product is used at 10 concentrations and the reference antagonist at 7 concentrations. In each well (of a 96-well plate), the cells are in contact with one concentration of the test product and one concentration of the reference antagonist. […]
# as §3
# (§7) In the case of an agonist, the AC50 is calculated by plotting the curve of the product at the concentration of the reference ligand giving 80% activation. The percentage activation which corresponds to the maximum level of activity obtained is also measured. […]
# (§8) The culture medium is removed by turning the plates over, and […] of a 1:1 PBS (phosphate buffered solution)/luciferin mixture are added to each well. After 5 minutes, the plates are read using the luminescence reader.
# [4] = tested on: RAR gamma; test: as above; type: cell-based; settings: statement in words, from the Kdapp values of the transactivation test
# Protocol: as §1, §5, §6, §3, §7, §8
Structure (SMILES),Kd [1] [nM],Kd [2] [nM],Kd [3] [nM],selectivity for the RAR gamma receptor subtype in comparison with RAR alpha and RAR beta [4],melting point [°C]
"CC1(C)CCC(C)(C)c2cc(-c3cc(-c4ccc(C(=O)O)cc4)ccc3CCCO)ccc21 [Example 1, 4′-(3-hydroxypropyl)-3′-(5,5,8,8-tetramethyl-5,6,7,8-tetrahydronaphthalen-2-yl)biphenyl-4-carboxylic acid]",15,2,0.1,better selectivity of these compounds for the RAR gamma receptor subtype,203
"CC1(C)CCC(C)(C)c2cc(-c3cc(-c4ccc(C(=O)O)cc4)ccc3CC(O)CO)ccc21 (stereo not drawn) [Example 2, 4′-(2,3-dihydroxypropyl)-3′-(5,5,8,8-tetramethyl-5,6,7,8-tetrahydronaphthalen-2-yl)biphenyl-4-carboxylic acid]",60,15,0.5,better selectivity of these compounds for the RAR gamma receptor subtype,
